# Read-outs that look alike come from different tables or passages of the source.
# Key:
# Experiment in all cases: Post-emergence action, greenhouse pot test, visual scoring
# Assay type in all cases: in vivo
# [1] = test system: Fallopia (ex Polygonum) convolvulus (POLCO); conditions: read-out: % activity found
# Method: (§1) Seeds or rhizome pieces of mono- and dicotyledonous harmful and useful plants were placed in peat pots (diameter 4 cm) filled with sandy loam and then covered with soil. The pots were kept in a greenhouse under optimum conditions. In addition, harmful plants encountered in paddy rice cultivation were cultivated in pots with a water level 2 cm above the soil surface.
# (§2) About three weeks after the start of the cultivation, the test plants were treated at the 2- to 3-leaf stage. The herbicides, formulated as powder or liquid concentrates, were, either alone or in the combinations according to the invention, sprayed in various dosages on to the green parts of the plants using an application rate of 600 l of water/ha (converted). For further cultivation of the plants, the pots were then again kept under optimum conditions in a greenhouse.
# (§3) The visual scoring of the herbicidal effects was carried out in intervals up to 21 days after the treatment. Scoring was carried out in percent in comparison to the untreated control plants. 0%=no herbicidal activity, 100%=complete herbicidal activity=complete kill.
# (§4) The percentages from the treatments with the herbicides alone (=individual application) and with the combinations according to the invention (=mixtures) were employed to calculate interactions using the method of Colby. When the observed efficacies of the mixtures exceed the formal sum of the values of the tests with individual applications, they also exceed the expected value according to Colby, which is calculated using the formula below (cf. S. R. Colby; in Weeds 15 (1967) pp. 20 to 22):
# (§5) • A, B=activity of components A and B in percent at a dosage of a and b g of ai/ha (=gramm of active substance per hectare), respectively. • E=expected value in % at a dosage of a+b g of ai/ha.
# [2] = test system: Matricaria inodora (MATIN); conditions: Tripleurospermum inodorum, read-out: % activity found; for inhibition at 30 g/ha / inhibition at 10 g/ha: MATIN; for inhibition at 30 g/ha: 30 g of ai/ha; for inhibition at 10 g/ha: 10 g of ai/ha
# Method: as §1, §2, §3, §4, §5
# Avena fatua (AVEFA) = conditions: read-out: % activity found
# Method: as §1, §2, §3, §4, §5
# [3] = test system: Pharbitis purpurea (PHBPU); conditions: Ipomoea purpurea, read-out: % activity found; for inhibition at 10 g/ha / inhibition at 30 g/ha: PHBPU; for inhibition at 10 g/ha: 10 g of ai/ha; for inhibition at 30 g/ha: 30 g of ai/ha
# Method: as §1, §2, §3, §4, §5
# Zea mays (ZEAMX) = conditions: read-out: % activity found; for inhibition at 10 g/ha: 10 g of ai/ha
# Method: as §1, §2, §3, §4, §5
# Viola tricolor (VIOTR) = conditions: read-out: % activity found; for inhibition at 10 g/ha / inhibition at 30 g/ha: VIOTR; for inhibition at 10 g/ha: 10 g of ai/ha; for inhibition at 30 g/ha: 30 g of ai/ha
# Method: as §1, §2, §3, §4, §5
# [4] = test system: Alopecurus myosuroides (ALOMY); conditions: 504 h, read-out: % activity found
# Method: as §1, §2, §3, §4, §5
# Veronica persica (VERPE) = conditions: read-out: % activity found; for inhibition at 10 g/ha: 10 g of ai/ha
# Method: as §1, §2, §3, §4, §5
# [5] = test system: Amaranthus retroflexus (AMARE); conditions: read-out: % activity found; for inhibition at 10 g/ha / inhibition at 30 g/ha: AMARE; for inhibition at 10 g/ha: 10 g of ai/ha; for inhibition at 30 g/ha: 30 g of ai/ha
# Method: as §1, §2, §3, §4, §5
# [6] = test system: Cyperus esculentus (CYPES); conditions: for (7) % activity found: CYPES, 21 DAT
# Method: as §1, §2, §3, §4, §5
# [7] = test system: Abuthilon theophrasti (ABUTH); conditions: Abutilon theophrasti, read-out: % activity found; for inhibition at 10 g/ha / inhibition at 30 g/ha: ABUTH; for inhibition at 10 g/ha: 10 g of ai/ha; for inhibition at 30 g/ha: 30 g of ai/ha
# Method: as §1, §2, §3, §4, §5
# Oryza sativa (ORYSA) = conditions: read-out: % activity found
# Method: as §1, §2, §3, §4, §5
# [8] = test system: Triticum aestivum (TRZAS); conditions: read-out: % activity found; for inhibition at 30 g/ha: 30 g of ai/ha
# Method: as §1, §2, §3, §4, §5
# [9] = test system: Lolium multiflorum (LOLMU); conditions: read-out: % activity found; for inhibition at 30 g/ha: 30 g of ai/ha; for inhibition at 10 g/ha: 10 g of ai/ha
# Method: as §1, §2, §3, §4, §5
# [10] = Cyperus esculentus, 504 h, read-out: % activity found
smiles,measurement,setting,value
"C[C@@H](Oc1ccc(Oc2ccc(C#N)cc2F)cc1)C(=O)O [B7-2, (2R)-2-[4-(4-cyano-2-fluorophenoxy)phenoxy]propanoic acid]",inhibition at 25 g/ha,[1]; 240 h,0%
same,inhibition at 75 g/ha,[1]; 240 h,0%
same,inhibition at 25 g/ha,[1]; 504 h,0%
same,inhibition at 75 g/ha,[1]; 504 h,0%
same,inhibition at 25 g/ha,[2]; 504 h,0%
same,inhibition at 75 g/ha,[2]; 504 h,0%
same,inhibition at 25 g/ha,Avena fatua (AVEFA); 504 h,0%
same,inhibition at 25 g/ha,[3]; 240 h,0%
same,inhibition at 75 g/ha,[3]; 240 h,20%
same,inhibition at 25 g/ha,[3]; 504 h,0%
same,inhibition at 75 g/ha,[3]; 504 h,0%
same,inhibition at 25 g/ha,Zea mays (ZEAMX); 240 h,70%
same,inhibition at 25 g/ha,Zea mays (ZEAMX); 504 h,70%
same,inhibition at 75 g/ha,Viola tricolor (VIOTR); 240 h,0%
same,inhibition at 25 g/ha,Viola tricolor (VIOTR); 504 h,0%
same,inhibition at 75 g/ha,Viola tricolor (VIOTR); 504 h,0%
same,inhibition at 25 g/ha,[4],0%
same,inhibition at 75 g/ha,[4],20%
same,inhibition at 75 g/ha,Veronica persica (VERPE); 240 h,0%
same,inhibition at 25 g/ha,Veronica persica (VERPE); 504 h,0%
same,inhibition at 75 g/ha,Veronica persica (VERPE); 504 h,0%
same,inhibition at 25 g/ha,[5]; 240 h,0%
same,inhibition at 25 g/ha,[5]; 504 h,0%
same,inhibition at 75 g/ha,[5]; 504 h,0%
same,inhibition at 25 g/ha,[6]; [10],0%
same,inhibition at 75 g/ha,[6]; [10],0%
same,inhibition at 25 g/ha,[7]; 504 h,0%
same,inhibition at 75 g/ha,[7]; 504 h,0%
same,inhibition at 25 g/ha,Oryza sativa (ORYSA); 504 h,10%
same,inhibition at 75 g/ha,Oryza sativa (ORYSA); 504 h,20%
"O=C(O)COc1ccc(Cl)cc1Cl [B5-2, (2,4-dichlorophenoxy)acetic acid]",inhibition at 70 g/ha,Avena fatua (AVEFA); 504 h,0%
same,inhibition at 210 g/ha,Avena fatua (AVEFA); 504 h,0%
same,inhibition at 70 g/ha,Zea mays (ZEAMX); 240 h,0%
same,inhibition at 210 g/ha,Zea mays (ZEAMX); 240 h,40%
same,inhibition at 70 g/ha,Zea mays (ZEAMX); 504 h,0%
same,inhibition at 210 g/ha,Viola tricolor (VIOTR); 504 h,60%
same,inhibition at 70 g/ha,[4],0%
same,inhibition at 210 g/ha,[4],0%
same,inhibition at 210 g/ha,[8]; 240 h,0%
same,inhibition at 70 g/ha,[6]; [10],0%
"CCOC(=O)C(C)OC(=O)c1cc(Oc2ccc(C(F)(F)F)cc2Cl)ccc1[N+](=O)[O-] (racemic) [B1-5, (±)-2-ethoxy-1-methyl-2-oxoethyl 5-[2-chloro-4-(trifluoromethyl)phenoxy]-2-nitrobenzoate]",inhibition at 30 g/ha,"[2]; 504 h, 21 DAT",80%
same,inhibition at 30 g/ha,"[8]; 504 h, TRZAS, 21 DAT",20%
same,inhibition at 30 g/ha,"[9]; 504 h, 21 DAT",20%
same,inhibition at 30 g/ha,"Oryza sativa (ORYSA); 240 h, ORYSA, 10 DAT, 30 g of ai/ha",40%
"C[C@@H](Oc1ccc(Oc2nc3ccc(Cl)cc3o2)cc1)C(=O)O [B7-4, (R)-2-[4-(6-chlorobenzoxazol-2-yloxy)phenoxy]propionic acid]",inhibition at 10 g/ha,"[1]; 504 h, POLCO, 21 DAT, 10 g of ai/ha",0%
same,inhibition at 30 g/ha,"[1]; 504 h, POLCO, 21 DAT, 30 g of ai/ha",0%
same,inhibition at 10 g/ha,"[2]; 240 h, 10 DAT",0%
same,inhibition at 30 g/ha,"[2]; 240 h, 10 DAT",0%
same,inhibition at 10 g/ha,"[2]; 504 h, 21 DAT",0%
same,inhibition at 30 g/ha,"[2]; 504 h, 21 DAT",0%
same,inhibition at 10 g/ha,"Avena fatua (AVEFA); 240 h, AVEFA, 10 DAT, 10 g of ai/ha",0%
same,inhibition at 30 g/ha,"Avena fatua (AVEFA); 504 h, AVEFA, 21 DAT, 30 g of ai/ha",0%
same,inhibition at 10 g/ha,"[3]; 240 h, 10 DAT",0%
same,inhibition at 30 g/ha,"[3]; 240 h, 10 DAT",0%
same,inhibition at 10 g/ha,"[3]; 504 h, 21 DAT",0%
same,inhibition at 30 g/ha,"[3]; 504 h, 21 DAT",0%
same,inhibition at 10 g/ha,"Zea mays (ZEAMX); 240 h, ZEAMX, 10 DAT",30%
same,inhibition at 30 g/ha,"Zea mays (ZEAMX); 240 h, ZEAMX, 10 DAT, 30 g of ai/ha",70%
same,inhibition at 10 g/ha,"Zea mays (ZEAMX); 504 h, ZEAMX, 21 DAT",20%
same,inhibition at 10 g/ha,"Viola tricolor (VIOTR); 240 h, 10 DAT",0%
same,inhibition at 30 g/ha,"Viola tricolor (VIOTR); 240 h, 10 DAT",0%
same,inhibition at 10 g/ha,"Viola tricolor (VIOTR); 504 h, 21 DAT",0%
same,inhibition at 30 g/ha,"Viola tricolor (VIOTR); 504 h, 21 DAT",0%
same,inhibition at 10 g/ha,"[4]; ALOMY, 21 DAT, 10 g of ai/ha",30%
same,inhibition at 30 g/ha,"[4]; ALOMY, 21 DAT, 30 g of ai/ha",30%
same,inhibition at 10 g/ha,"Veronica persica (VERPE); 240 h, VERPE, 10 DAT",0%
same,inhibition at 10 g/ha,"Veronica persica (VERPE); 504 h, VERPE, 21 DAT",0%
same,inhibition at 30 g/ha,"Veronica persica (VERPE); 504 h, VERPE, 21 DAT, 30 g of ai/ha",0%
same,inhibition at 10 g/ha,"[8]; 240 h, TRZAS, 10 DAT, 10 g of ai/ha",0%
same,inhibition at 30 g/ha,"[8]; 240 h, TRZAS, 10 DAT",0%
same,inhibition at 10 g/ha,"[5]; 240 h, 10 DAT",0%
same,inhibition at 30 g/ha,"[5]; 240 h, 10 DAT",0%
same,inhibition at 10 g/ha,"[5]; 504 h, 21 DAT",0%
same,inhibition at 30 g/ha,"[5]; 504 h, 21 DAT",0%
same,(7) % activity found,"[6]; (6) dose of B7-4 10, alone",0%
same,(7) % activity found,"[6]; (6) dose of B7-4 30, alone",0%
same,inhibition at 10 g/ha,"[7]; 240 h, 10 DAT",0%
same,inhibition at 30 g/ha,"[7]; 240 h, 10 DAT",0%
same,inhibition at 10 g/ha,"[7]; 504 h, 21 DAT",0%
same,inhibition at 30 g/ha,"[7]; 504 h, 21 DAT",0%
same,inhibition at 10 g/ha,"[9]; 240 h, 10 DAT",20%
same,inhibition at 10 g/ha,"[9]; 504 h, 21 DAT",0%
same,inhibition at 30 g/ha,"[9]; 504 h, 21 DAT",0%

# Reference: patent US20100075854A1, “HERBICIDE COMBINATION COMPRISING DIMETHOSXYTRIAZINYL-SUBSTITUTED DIFLUOROMETHANESULFONYLANILIDES” (Bayer CropScience AG, priority 2008, published 2010)
